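Dose response: 5 concentrations. Exposure: 48 h. Format: 96-well plates. Endpoint: linear interpolation; highest concentration if not reached. Definition used: TGI = concentration required for complete inhibition of growth.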
Test system: SNB-19 CNS
Assay: NCI-60 cell line screen, 48 h

`CC1(C)C(=O)N(CCCCCCN2C(=O)C(C)(C)c3ccccc32)c2ccccc21` and `c1ccc(CNn2nnc3ccccc32)cc1` cannot be ordered by TGI: greater than 100 µM for the first, greater than 100 µM for the second.

`NCCCCN(CCCN)/[N+]([O-])=N\O` and `Cc1cccc(NC(=O)/C(=N\NC(C)(C)C)C2NC(=S)NC2=O)c1C` (centres undefined) cannot be ordered by TGI: greater than 100 µM for the first, greater than 100 µM for the second.

Test system: COLO 205 colon
Assay: NCI-60 cell line screen, 48 h

Point of comparison: `CC1(C)C(=O)N(CCCCCCN2C(=O)C(C)(C)c3ccccc32)c2ccccc21`, TGI 55.2 µM. Against it:
- Cc1nc(N)sc1C(=O)/C=C\c1ccc2c(c1)OCO2 — higher, > 100 µM
- COc1cc(C(C)O)c[n+](CCc2c[nH]c3ccccc23)c1 (centres undefined) — higher, > 100 µM
- CC1(C)SCc2nc3ncccc3n21 — higher, > 100 µM
- Cn1c(=O)c(C(c2ccc([N+](=O)[O-])cc2)c2c(O)c3ccccc3n(C)c2=O)cc2ccccc21 (centres undefined) — higher, > 100 µM
- Cc1cn(C2CC(O)C(CO)O2)c(=O)n2nnnc12 (centres undefined) — higher, > 100 µM
- COc1ccc(C(=O)C(C(=O)CCC(=O)Nc2cccc(Cl)c2)c2ccc(OC)cc2)cc1 (centres undefined) — higher, > 100 µM
- CCOC(=O)C1=C(C)N(NC(=O)Nc2ccccc2)C(=O)C1=P(c1ccccc1)(c1ccccc1)c1ccccc1 — within 1.5-fold, 56.4 µM
- COc1cc(C=C2C(=O)NC(=O)NC2=O)cc(OC)c1OC — higher, > 100 µM
- Cc1ccc(C2=C(c3ccccc3)C(Br)(c3ccc(C)cc3)C(c3ccccc3)=C2c2ccc(C)cc2)cc1 — higher, > 100 µM
- N#CCN1C(=O)c2cccc3cc([N+](=O)[O-])cc(c23)C1=O — higher, > 100 µM
- CC(C)C(Nc1c2ccccc2nc2ccccc12)C(=O)O (centres undefined) — higher, > 100 µM
- COc1ccccc1CCc1cc(OC)c(OC)c(OC)c1 — higher, > 100 µM
- COC(=O)/C(=N\Nc1nnc(C)n1N)C(C#N)c1ccc(Cl)cc1 (centres undefined) — higher, > 100 µM
- Cc1cccc(NC(=O)C(=O)C(C(=O)c2ccc3ccccc3c2)C2OC(=O)c3ccccc32)c1C (centres undefined) — 2.2-fold lower, 24.7 µM
- CS/C(N)=N\NC(=O)CCC(=O)Nc1ccccc1C(F)(F)F — higher, > 100 µM
- CC(C)(C)c1ccc2c(c1)S(=O)(=O)Nc1ccccc1NS(=O)(=O)c1cc(C(C)(C)C)ccc1OCCOCCOCCO2 — higher, > 100 µM
- NC(N)=N/N=C(\c1nc2ccc([N+](=O)[O-])cc2[nH]c1=O)C(O)c1ccc([N+](=O)[O-])cc1 (centres undefined) — higher, > 100 µM
- NCCCCN(CCCN)/[N+]([O-])=N\O — higher, > 100 µM
- Cc1cccc(NC(=O)/C(=N\NC(C)(C)C)C2NC(=S)NC2=O)c1C (centres undefined) — higher, > 100 µM
- c1ccc(CNn2nnc3ccccc32)cc1 — higher, > 100 µM

Test system: HL-60(TB) leukemia
Assay: NCI-60 cell line screen, 48 h

Point of comparison: `CC1(C)C(=O)N(CCCCCCN2C(=O)C(C)(C)c3ccccc32)c2ccccc21`, TGI 19.7 µM. Against it:
- Cc1nc(N)sc1C(=O)/C=C\c1ccc2c(c1)OCO2 — higher, > 100 µM
- COc1cc(C(C)O)c[n+](CCc2c[nH]c3ccccc23)c1 (centres undefined) — higher, > 100 µM
- CC1(C)SCc2nc3ncccc3n21 — higher, > 100 µM
- Cn1c(=O)c(C(c2ccc([N+](=O)[O-])cc2)c2c(O)c3ccccc3n(C)c2=O)cc2ccccc21 (centres undefined) — higher, > 100 µM
- Cc1cn(C2CC(O)C(CO)O2)c(=O)n2nnnc12 (centres undefined) — higher, > 100 µM
- COc1ccc(C(=O)C(C(=O)CCC(=O)Nc2cccc(Cl)c2)c2ccc(OC)cc2)cc1 (centres undefined) — higher, > 100 µM
- CCOC(=O)C1=C(C)N(NC(=O)Nc2ccccc2)C(=O)C1=P(c1ccccc1)(c1ccccc1)c1ccccc1 — 2.6-fold higher, 50.4 µM
- COc1cc(C=C2C(=O)NC(=O)NC2=O)cc(OC)c1OC — higher, > 100 µM
- Nn1c(=O)n(Cc2ccccc2)n(-c2ccccc2)c1=O — higher, > 100 µM
- Cc1ccc(C2=C(c3ccccc3)C(Br)(c3ccc(C)cc3)C(c3ccccc3)=C2c2ccc(C)cc2)cc1 — higher, > 100 µM
- N#CCN1C(=O)c2cccc3cc([N+](=O)[O-])cc(c23)C1=O — 2.9-fold higher, 56.4 µM
- CC(C)C(Nc1c2ccccc2nc2ccccc12)C(=O)O (centres undefined) — higher, > 100 µM
- COc1ccccc1CCc1cc(OC)c(OC)c(OC)c1 — 2-fold higher, 39.3 µM
- Cc1cccc(NC(=O)C(=O)C(C(=O)c2ccc3ccccc3c2)C2OC(=O)c3ccccc32)c1C (centres undefined) — 3.5-fold higher, 68.5 µM
- CC(C)(C)c1ccc2c(c1)S(=O)(=O)Nc1ccccc1NS(=O)(=O)c1cc(C(C)(C)C)ccc1OCCOCCOCCO2 — higher, > 100 µM
- NC(N)=N/N=C(\c1nc2ccc([N+](=O)[O-])cc2[nH]c1=O)C(O)c1ccc([N+](=O)[O-])cc1 (centres undefined) — higher, > 100 µM
- NCCCCN(CCCN)/[N+]([O-])=N\O — higher, > 100 µM
- Cc1cccc(NC(=O)/C(=N\NC(C)(C)C)C2NC(=S)NC2=O)c1C (centres undefined) — higher, > 100 µM
- c1ccc(CNn2nnc3ccccc32)cc1 — higher, > 100 µM

Test system: SR leukemia
Assay: NCI-60 cell line screen, 48 h

Point of comparison: `N#CCN1C(=O)c2cccc3cc([N+](=O)[O-])cc(c23)C1=O`, TGI 41.8 µM. Against it:
- Cc1nc(N)sc1C(=O)/C=C\c1ccc2c(c1)OCO2 — higher, > 100 µM
- COc1cc(C(C)O)c[n+](CCc2c[nH]c3ccccc23)c1 (centres undefined) — higher, > 100 µM
- Cn1c(=O)c(C(c2ccc([N+](=O)[O-])cc2)c2c(O)c3ccccc3n(C)c2=O)cc2ccccc21 (centres undefined) — higher, > 100 µM
- Cc1cn(C2CC(O)C(CO)O2)c(=O)n2nnnc12 (centres undefined) — higher, > 100 µM
- COc1ccc(C(=O)C(C(=O)CCC(=O)Nc2cccc(Cl)c2)c2ccc(OC)cc2)cc1 (centres undefined) — higher, > 100 µM
- CCOC(=O)C1=C(C)N(NC(=O)Nc2ccccc2)C(=O)C1=P(c1ccccc1)(c1ccccc1)c1ccccc1 — within 1.5-fold, 56.1 µM
- COc1cc(C=C2C(=O)NC(=O)NC2=O)cc(OC)c1OC — higher, > 100 µM
- Nn1c(=O)n(Cc2ccccc2)n(-c2ccccc2)c1=O — higher, > 100 µM
- CC(C)C(Nc1c2ccccc2nc2ccccc12)C(=O)O (centres undefined) — higher, > 100 µM
- CS/C(N)=N\NC(=O)CCC(=O)Nc1ccccc1C(F)(F)F — higher, > 100 µM
- NC(N)=N/N=C(\c1nc2ccc([N+](=O)[O-])cc2[nH]c1=O)C(O)c1ccc([N+](=O)[O-])cc1 (centres undefined) — higher, > 100 µM
- NCCCCN(CCCN)/[N+]([O-])=N\O — higher, > 100 µM

Test system: HOP-62 NSCLC
Assay: NCI-60 cell line screen, 48 h

Point of comparison: `Cc1cccc(NC(=O)C(=O)C(C(=O)c2ccc3ccccc3c2)C2OC(=O)c3ccccc32)c1C` (centres undefined), TGI 24.7 µM. Against it:
- Cc1nc(N)sc1C(=O)/C=C\c1ccc2c(c1)OCO2 — higher, > 100 µM
- COc1cc(C(C)O)c[n+](CCc2c[nH]c3ccccc23)c1 (centres undefined) — higher, > 100 µM
- CC1(C)SCc2nc3ncccc3n21 — higher, > 100 µM
- Cn1c(=O)c(C(c2ccc([N+](=O)[O-])cc2)c2c(O)c3ccccc3n(C)c2=O)cc2ccccc21 (centres undefined) — 3-fold higher, 75.2 µM
- Cc1cn(C2CC(O)C(CO)O2)c(=O)n2nnnc12 (centres undefined) — higher, > 100 µM
- COc1ccc(C(=O)C(C(=O)CCC(=O)Nc2cccc(Cl)c2)c2ccc(OC)cc2)cc1 (centres undefined) — higher, > 100 µM
- CCOC(=O)C1=C(C)N(NC(=O)Nc2ccccc2)C(=O)C1=P(c1ccccc1)(c1ccccc1)c1ccccc1 — higher, > 100 µM
- COc1cc(C=C2C(=O)NC(=O)NC2=O)cc(OC)c1OC — higher, > 100 µM
- Nn1c(=O)n(Cc2ccccc2)n(-c2ccccc2)c1=O — higher, > 100 µM
- Cc1ccc(C2=C(c3ccccc3)C(Br)(c3ccc(C)cc3)C(c3ccccc3)=C2c2ccc(C)cc2)cc1 — higher, > 100 µM
- N#CCN1C(=O)c2cccc3cc([N+](=O)[O-])cc(c23)C1=O — higher, > 100 µM
- COc1ccccc1CCc1cc(OC)c(OC)c(OC)c1 — higher, > 100 µM
- COC(=O)/C(=N\Nc1nnc(C)n1N)C(C#N)c1ccc(Cl)cc1 (centres undefined) — higher, > 100 µM
- CS/C(N)=N\NC(=O)CCC(=O)Nc1ccccc1C(F)(F)F — higher, > 100 µM
- CC(C)(C)c1ccc2c(c1)S(=O)(=O)Nc1ccccc1NS(=O)(=O)c1cc(C(C)(C)C)ccc1OCCOCCOCCO2 — higher, > 100 µM
- NC(N)=N/N=C(\c1nc2ccc([N+](=O)[O-])cc2[nH]c1=O)C(O)c1ccc([N+](=O)[O-])cc1 (centres undefined) — higher, > 100 µM
- CC1(C)C(=O)N(CCCCCCN2C(=O)C(C)(C)c3ccccc32)c2ccccc21 — higher, > 100 µM
- NCCCCN(CCCN)/[N+]([O-])=N\O — higher, > 100 µM
- Cc1cccc(NC(=O)/C(=N\NC(C)(C)C)C2NC(=S)NC2=O)c1C (centres undefined) — higher, > 100 µM
- c1ccc(CNn2nnc3ccccc32)cc1 — higher, > 100 µM

Reference: PubChem BioAssay (NCI)
